Test system: OT-induced myometrial contractility
Experiment: Oxytocin-induced contractions of human myometrial biopsies (myograph)
Details: 6, 60, 600, 6000 nM
Protocol: Experiments were performed using a DMT Myograph 800 MS (ADINSTRUMENTS™) in oxygenated Kreb's solution with ADI Powerlab software. Once regular contractions had been established for at least 20 minutes, baseline measurements of spontaneous contraction frequency were recorded. The measurement of spontaneous contraction frequency is represented on the x-axis as “Spon.” A DMSO control or compound II was then added to each myometrial sample at the indicated concentrations and the effects of control or compound II on contractile frequency were measured over the ensuing 10-minute period. This time point is represented on the x-axis as “Compound II.” The effects of compound II on contractile frequency in the presence of OT were subsequently measured by challenging the myometrial tissue samples with increasing concentrations of OT (1 nM, 10 nM, and 100 nM) at sequential 10-minute intervals. […] Once regular contractions had been established for at least 20 minutes, baseline measurements of spontaneous work done per contraction were recorded. The measurement of spontaneous work done per contraction is represented on the x-axis as “Spon.” A DMSO control or compound II was then added to each myometrial sample at the indicated concentrations and the effects of control or compound II on work done per contraction were measured over the ensuing 10-minute period. […]

`O=C(N[C@@H](CCO)c1ccc(F)cc1)[C@@H]1SCCN1S(=O)(=O)c1ccc(-c2ccccc2)cc1` [Compound II, 3-([1,1′-biphenyl]-4-ylsulfonyl)-N-[1-(4-fluorophenyl)-3-hydroxypropyl]-1,3-thiazolidine-2-carboxamide] was tested, and the “Effect on OT-induced myometrial contractility” value was “suppressing both PGF2α-induced and OT-induced myometrial contractility in a dose-dependent fashion”.

From patent publication US11524003B2, “Alpha-amino esters of hydroxypropylthiazolidine carboxamide derivative and salt form, crystal polymorph thereof” (ObsEva S.A., priority 2016, dated 2022)
